{
  "source": "ChEMBL document CHEMBL2157891",
  "about": "(J Med Chem, 2012)",
  "key": {"[1]": {"biological_target": "Baculoviral IAP repeat-containing protein 2 (Homo sapiens, UniProt Q13490)", "test": "Binding affinity to BIR3 domain of cIAP1 by fluorescence polarization assay"}, "MDA-MB-231 [2]": {"test_system": "MDA-MB-231", "test": "cells", "conditions": "Homo sapiens, MDA-MB-231, 96 h"}, "SK-OV-3 [3]": {"test_system": "SK-OV-3", "test": "cells", "conditions": "Homo sapiens, SK-OV-3, 96 h"}, "MDA-MB-231 [4]": {"test_system": "MDA-MB-231", "test": "Induction of apoptosis in human MDA-MB-231 cells assessed as caspase 3 cleavage at 10 nM after 24 hrs by Western blot analysis", "type": "functional, cell-based"}, "MDA-MB-231 [5]": {"test_system": "MDA-MB-231", "test": "Induction of apoptosis in human MDA-MB-231 cells assessed as caspase 8 cleavage at 10 nM after 24 hrs by Western blot analysis", "type": "functional, cell-based"}, "MDA-MB-231 [6]": {"test_system": "MDA-MB-231", "test": "Induction of apoptosis in human MDA-MB-231 cells assessed as PARP cleavage at 300 nM after 24 hrs by Western blot analysis", "type": "functional, cell-based"}, "SK-OV-3 [7]": {"test_system": "SK-OV-3", "test": "Induction of apoptosis in human SKOV3 cells assessed as caspase 3 cleavage at 10 nM after 24 hrs by Western blot analysis", "type": "functional, cell-based"}, "SK-OV-3 [8]": {"test_system": "SK-OV-3", "test": "Induction of apoptosis in human SKOV3 cells assessed as caspase 8 cleavage at 10 nM after 24 hrs by Western blot analysis", "type": "functional, cell-based"}, "SK-OV-3 [9]": {"test_system": "SK-OV-3", "test": "Induction of apoptosis in human SKOV3 cells assessed as PARP cleavage at 300 nM after 24 hrs by Western blot analysis", "type": "functional, cell-based"}, "MDA-MB-231 [10]": {"test_system": "MDA-MB-231", "test": "Induction of apoptosis in human MDA-MB-231 cells assessed as caspase 3 cleavage at 3 nM after 24 hrs by Western blot analysis", "type": "functional, cell-based"}, "MDA-MB-231 [11]": {"test_system": "MDA-MB-231", "test": "Induction of apoptosis in human MDA-MB-231 cells assessed as caspase 8 cleavage at 3 nM after 24 hrs by Western blot analysis", "type": "functional, cell-based"}, "MDA-MB-231 [12]": {"test_system": "MDA-MB-231", "test": "Induction of apoptosis in human MDA-MB-231 cells assessed as PARP cleavage at 3 nM after 24 hrs by Western blot analysis", "type": "functional, cell-based"}, "SK-OV-3 [13]": {"test_system": "SK-OV-3", "test": "Induction of apoptosis in human SKOV3 cells assessed as caspase 3 cleavage at 3 nM after 24 hrs by Western blot analysis", "type": "functional, cell-based"}, "SK-OV-3 [14]": {"test_system": "SK-OV-3", "test": "Induction of apoptosis in human SKOV3 cells assessed as caspase 8 cleavage at 3 nM after 24 hrs by Western blot analysis", "type": "functional, cell-based"}, "SK-OV-3 [15]": {"test_system": "SK-OV-3", "test": "Induction of apoptosis in human SKOV3 cells assessed as PARP cleavage at 3 nM after 24 hrs by Western blot analysis", "type": "functional, cell-based"}},
  "note": "The source made the active and inactive calls. No cut-off for these calls is given here.",
  "data": [
    {"molecule": "CN[C@@H](C)C(=O)N[C@H]1CCCC[C@H]2CC[C@@H](C(=O)N[C@@H](c3ccccc3)c3cn(CCCCc4ccc(CCCCn5cc([C@@H](NC(=O)[C@@H]6CC[C@@H]7CCCC[C@H](NC(=O)[C@H](C)NC)C(=O)N76)c6ccccc6)nn5)cc4)nn3)N2C1=O", "values": [
      {"measurement": "Ki", "setting": "[1]", "result": 0.5, "unit": "nM"},
      {"measurement": "IC50", "setting": "MDA-MB-231 [2]", "result": 6.8, "unit": "nM"},
      {"measurement": "IC50", "setting": "SK-OV-3 [3]", "result": 16, "unit": "nM"}
    ]},
    {"molecule": "CN[C@@H](C)C(=O)N[C@H]1CN(C(C)=O)CC[C@H]2CC[C@@H](C(=O)NC(c3ccccc3)c3ccccc3)N2C1=O", "values": [
      {"measurement": "Activity", "setting": "MDA-MB-231 [4]", "result": "Active"},
      {"measurement": "Activity", "setting": "MDA-MB-231 [5]", "result": "Active"},
      {"measurement": "Activity", "setting": "MDA-MB-231 [6]", "result": "Active"},
      {"measurement": "Activity", "setting": "SK-OV-3 [7]", "result": "Active"},
      {"measurement": "Activity", "setting": "SK-OV-3 [8]", "result": "Active"},
      {"measurement": "Activity", "setting": "SK-OV-3 [9]", "result": "Active"},
      {"measurement": "IC50", "setting": "MDA-MB-231 [2]", "result": 115, "unit": "nM"},
      {"measurement": "IC50", "setting": "SK-OV-3 [3]", "result": 250, "unit": "nM"}
    ]},
    {"molecule": "CN[C@@H](C)C(=O)N[C@H]1CN(C(=O)CCCCCCC(=O)N2CC[C@H]3CC[C@@H](C(=O)NC(c4ccccc4)c4ccccc4)N3C(=O)[C@@H](NC(=O)[C@H](C)NC)C2)CC[C@H]2CC[C@@H](C(=O)NC(c3ccccc3)c3ccccc3)N2C1=O", "values": [
      {"measurement": "IC50", "setting": "MDA-MB-231 [2]", "result": 17.2, "unit": "nM"},
      {"measurement": "IC50", "setting": "SK-OV-3 [3]", "result": 11, "unit": "nM"}
    ]},
    {"molecule": "CN[C@@H](C)C(=O)N[C@H]1CN(C(=O)c2ccc(C(=O)N3CC[C@H]4CC[C@@H](C(=O)NC(c5ccccc5)c5ccccc5)N4C(=O)[C@@H](NC(=O)[C@H](C)NC)C3)cc2)CC[C@H]2CC[C@@H](C(=O)NC(c3ccccc3)c3ccccc3)N2C1=O", "values": [
      {"measurement": "IC50", "setting": "MDA-MB-231 [2]", "result": 50.8, "unit": "nM"},
      {"measurement": "IC50", "setting": "SK-OV-3 [3]", "result": 180, "unit": "nM"}
    ]},
    {"molecule": "CN[C@@H](C)C(=O)N[C@H]1CN(C(=O)CCC(=O)N2CC[C@H]3CC[C@@H](C(=O)NC(c4ccccc4)c4ccccc4)N3C(=O)[C@@H](NC(=O)[C@H](C)NC)C2)CC[C@H]2CC[C@@H](C(=O)NC(c3ccccc3)c3ccccc3)N2C1=O", "values": [
      {"measurement": "IC50", "setting": "MDA-MB-231 [2]", "result": 13.8, "unit": "nM"},
      {"measurement": "IC50", "setting": "SK-OV-3 [3]", "result": 27, "unit": "nM"}
    ]},
    {"molecule": "CN[C@@H](C)C(=O)N[C@H]1CN(C(=O)CCCCCCCCC(=O)N2CC[C@H]3CC[C@@H](C(=O)NC(c4ccccc4)c4ccccc4)N3C(=O)[C@@H](NC(=O)[C@H](C)NC)C2)CC[C@H]2CC[C@@H](C(=O)NC(c3ccccc3)c3ccccc3)N2C1=O", "values": [
      {"measurement": "Activity", "setting": "MDA-MB-231 [10]", "result": "Active"},
      {"measurement": "Activity", "setting": "MDA-MB-231 [11]", "result": "Active"},
      {"measurement": "Activity", "setting": "MDA-MB-231 [12]", "result": "Active"},
      {"measurement": "Activity", "setting": "SK-OV-3 [13]", "result": "Active"},
      {"measurement": "Activity", "setting": "SK-OV-3 [14]", "result": "Active"},
      {"measurement": "Activity", "setting": "SK-OV-3 [15]", "result": "Active"},
      {"measurement": "IC50", "setting": "MDA-MB-231 [2]", "result": 7.5, "unit": "nM"},
      {"measurement": "IC50", "setting": "SK-OV-3 [3]", "result": 3.1, "unit": "nM"}
    ]},
    {"molecule": "CN[C@@H](C)C(=O)N[C@H]1CN(C(=O)CCCCCCCCCCC(=O)N2CC[C@H]3CC[C@@H](C(=O)NC(c4ccccc4)c4ccccc4)N3C(=O)[C@@H](NC(=O)[C@H](C)NC)C2)CC[C@H]2CC[C@@H](C(=O)NC(c3ccccc3)c3ccccc3)N2C1=O", "values": [
      {"measurement": "IC50", "setting": "MDA-MB-231 [2]", "result": 10.6, "unit": "nM"},
      {"measurement": "IC50", "setting": "SK-OV-3 [3]", "result": 12, "unit": "nM"}
    ]},
    {"molecule": "CN[C@@H](C)C(=O)N[C@H]1CN(C(=O)CCCCC(=O)N2CC[C@H]3CC[C@@H](C(=O)NC(c4ccccc4)c4ccccc4)N3C(=O)[C@@H](NC(=O)[C@H](C)NC)C2)CC[C@H]2CC[C@@H](C(=O)NC(c3ccccc3)c3ccccc3)N2C1=O", "values": [
      {"measurement": "IC50", "setting": "MDA-MB-231 [2]", "result": 14.8, "unit": "nM"},
      {"measurement": "IC50", "setting": "SK-OV-3 [3]", "result": 9.9, "unit": "nM"}
    ]},
    {"molecule": "CN[C@@H](C)C(=O)N[C@H]1CN(C(=O)CCCCOCCCCC(=O)N2CC[C@H]3CC[C@@H](C(=O)NC(c4ccccc4)c4ccccc4)N3C(=O)[C@@H](NC(=O)[C@H](C)NC)C2)CC[C@H]2CC[C@@H](C(=O)NC(c3ccccc3)c3ccccc3)N2C1=O", "values": [
      {"measurement": "IC50", "setting": "MDA-MB-231 [2]", "result": 4.7, "unit": "nM"},
      {"measurement": "IC50", "setting": "SK-OV-3 [3]", "result": 4.7, "unit": "nM"}
    ]},
    {"molecule": "CN[C@@H](C)C(=O)N[C@H]1CCCC[C@H]2CC[C@@H](C(=O)N[C@@H](c3ccccc3)c3cn(CCCCCCCCn4cc([C@@H](NC(=O)[C@@H]5CC[C@@H]6CCCC[C@H](NC(=O)[C@H](C)NC)C(=O)N65)c5ccccc5)nn4)nn3)N2C1=O", "values": [
      {"measurement": "IC50", "setting": "[1]", "result": 2.8, "unit": "nM"},
      {"measurement": "Ki", "setting": "[1]", "result": "< 0.5", "unit": "nM"}
    ]},
    {"molecule": "CN[C@@H](C)C(=O)N[C@H]1CN(C(=O)CCCCc2ccc(CCCCC(=O)N3CC[C@H]4CC[C@@H](C(=O)NC(c5ccccc5)c5ccccc5)N4C(=O)[C@@H](NC(=O)[C@H](C)NC)C3)cc2)CC[C@H]2CC[C@@H](C(=O)NC(c3ccccc3)c3ccccc3)N2C1=O", "values": [
      {"measurement": "Activity", "setting": "MDA-MB-231 [10]", "result": "Active"},
      {"measurement": "Activity", "setting": "MDA-MB-231 [11]", "result": "Active"},
      {"measurement": "Activity", "setting": "MDA-MB-231 [12]", "result": "Active"},
      {"measurement": "Activity", "setting": "SK-OV-3 [13]", "result": "Active"},
      {"measurement": "Activity", "setting": "SK-OV-3 [14]", "result": "Active"},
      {"measurement": "Activity", "setting": "SK-OV-3 [15]", "result": "Active"},
      {"measurement": "IC50", "setting": "MDA-MB-231 [2]", "result": 3.4, "unit": "nM"},
      {"measurement": "IC50", "setting": "SK-OV-3 [3]", "result": 9.6, "unit": "nM"}
    ]}
  ]
}
